Earlier results, collected in patent US6998112B2, “Sleep inducing toothpaste made with natural herbs and a natural hormone” (priority 2003, dated 2006).

Details: in vivo

Melatonin
adverse effects: isolated reports of exacerbation of depression and fatigue
